{"source": "patent US7429612B2", "about": "“Indoline compound and medicinal use thereof” (Kyoto Pharmaceutical Industries, Ltd., priority 2002, dated 2008)", "key": {"[1]": {"assay": "Plasma concentration after oral administration", "assay_type": "in vivo, SD male rats", "settings": "10 mg/kg oral, suspended in 5% gum arabic, HPLC", "protocol": "A test compound (10 mg/kg) suspended in 5% gum arabic solution was forcibly administered orally to SD male rats weighing 200-250 g. At 0.5, 1, 3, 5 and 8 hours after administration, blood was taken without anesthesia and heparinized plasma was separated by conventional method. The concentration of the test compound in the plasma was determined by high performance liquid chromatography, the results of which are shown in Table 5."}, "LDL": {"system": "LDL", "assay": "In vitro LDL peroxidation inhibitory effect (copper sulfate, thiobarbituric acid method)", "assay_type": "biochemical, KHC rabbits", "settings": "Concentration: 10^-5 M; malondialdehyde production, 5 μM copper sulfate, 37° C., 1 hr", "experimental": "The blood was drawn from the auricular artery of KHC rabbits weighing about 3 kg and LDL was separated by a conventional method. A solution (5 μL) of test compound in DMSO or DMSO was added (final concentration 10^−5 M) to LDL suspension (0.5 mg protein/mL, 0.5 mL), aqueous copper sulfate solution (5 μL, final concentration 5 μM) was added, and the mixture was incubated at 37° C. for 1 hr. After the completion of the incubation, EDTA·2Na solution (5 μL, final concentration 1 mM) was added, and lipoperoxide concentration in the-sample was measured by the Yagi's method. To be specific, lipoperoxide in the sample was color developed by the thiobarbituric acid method, measured as malondialdehyde and the activity of the test compound was shown by malondialdehyde production inhibitory rate (%) [to what level the production of malondialdehyde was inhibited as compared to control]."}, "[2]": {"system": "THP-1 cell-derived macrophages", "assay": "THP-1 cell-derived macrophage foam cell formation suppressing effect (cholesterol ester accumulation inhibitory effect)", "assay_type": "cell-based", "settings": "Homo sapiens, THP-1, 72 h, Concentration: 10^-6 M, acetyl LDL, 3 days culture, read-out: foam cell formation inhibitory rate (%)", "protocol": "THP-1 (Dainippon Pharmaceutical Co., Ltd.) cells were passage cultured in RPMI-1640 medium supplemented with 10% fetal bovine serum (FBS), and the cells of passages 6-13 after purchase were used. The cells were suspended in FBS-containing RPMI-1640 medium to give a suspension having a concentration of 4×10^5 cells/mL. The cell suspension was inoculated to a 12 well microplate by 1 mL, and treated with phorbol 12-myristate 13-acetate (PMA, 200 nM) as a differentiation inducing agent into macrophage. Then acetyl LDL 400 μg/mL prepared separately from plasma-derived LDL of genetically hyperlipidemia rabbit (KHC rabbit, Japan Laboratory Animals, Inc.) was added. In addition, a test compound dissolved in DMSO and diluted with FBS-containing RPMI-1640 medium or a control solvent was added. After culture in a carbon dioxide incubator for 3 days, the cells were washed with phosphate buffered physiological saline (pH 7.0), and the lipid was extracted with n-hexane/isopropanol (3:2). The cells were dissolved in 1M-NaOH and the protein amount was measured. The free cholesterol and cholesterol ester in a lipid extraction sample was measured by the method of Kunitomo et al. (1983). The cholesterol ester was compared between the control cell and the test compound-treated cells, and the cholesterol ester accumulation inhibitory rate of the test compound was calculated."}, "hepatic ACAT": {"system": "hepatic ACAT", "assay": "Hepatic ACAT inhibitory activity (rabbit liver microsomes, [1-14C]-oleoyl CoA)", "assay_type": "biochemical, Japanese white rabbits", "settings": "Concentration: 10^-6 M; inhibition of cholesteryl oleate production vs control", "protocol": "A high cholesterol feed [a feed added with cholesterol (1%), Clea Japan, Inc.] was fed to male Japanese white rabbits weighing 2-2.5 kg at 100 g per day and the rabbits were bred for 4 weeks. The rabbits were killed by bleeding under anesthesia and liver was removed. The liver was homogenated, and the homogenate was centrifuged at 4° C. and 10,000 rpm for 15 min. The obtained supernatant was further centrifuged at 4° C. and 41,000 rpm for 60 minutes to give microsomal fractions. The microsomal suspension as an enzyme sample, dimethyl sulfoxide (DMSO, […]) or a test compound dissolved in DMSO (test compound solution 3 μl), and reaction substrate [1-^14C]-oleoyl CoA were added to 0.15 M phosphate buffer to the total amount of 300 μl. After incubation at 37° C. for 20 minutes, a chloroform-methanol mixture was added to stop the reaction. Water was added thereto and mixed, and the chloroform layer was separated. The solvent was evaporated to dryness, and the residue was redissolved in n-hexane. The mixture was subjected to thin layer chromatography using a silica gel plate. The spots of cholesteryl oleate on the silica gel plate were scraped, and quantitatively assayed on lo a liquid scintillation counter."}, "[3]": {"system": "cholesterol secretion from the liver", "assay": "Mouse hepatic lipid secretion inhibitory effect (Triton WR-1339 method)", "assay_type": "in vivo, Slc:ICR mice", "settings": "10 mg/kg/day oral, plasma TC change in 3 hr after Triton WR-1339, read-out: Cholesterol secretion inhibitory rate (%)", "protocol": "About 5 week-old male Slc:ICR mice (Japan SLC) were fed only in the daytime (9:00-18:00) and preliminarily bred for one week. During this period, free access to tap water was allowed during the nighttime, too. The mice were divided into a control group and a test compound group at 6 mice per group, such that the average and standard deviation of the body weight became almost the same. The blood (ca 80 μL) was drawn from the orbital venous plexus using a glass capillary under anesthesia, and at 30 min after blood drawing, a test compound suspended in 5% gum arabic solution in advance was orally administered at a dose of 10 mg/kg. At 30 min after the administration, Triton WR-1339 60 mg/mL solution prepared with physiological saline in advance was administered to the tail vein at a dose of 5 mL/kg. At 3 hr after the Triton WR-1339 administration, the blood was drawn again from the orbital venous plexus. Plasma was separated from the drawn blood, and plasma TC was measured using a commercially available measurement kit (Wako Pure Chemical Industries, Ltd.). Changes in blood-concentration in 3 hr after Triton WR-1339 administration were calculated and taken as the rate of cholesterol secretion from the liver. The rate of secretion was compared between the control group and the test compound group and the secretion inhibitory rate of the test compound was calculated."}}}
{"smiles": "CCCCN1CCc2c(C)c(NS(C)(=O)=O)c(C)c(NC(=O)C(C)(C)C)c21", "note": "[Example 12, N-(1-butyl-5-methanesulfonylamino-4,6-dimethylindolin-7-yl)-2,2-dimethylpropanamide]", "values": [{"measurement": "Maximum concentration in blood", "setting": "[1]", "value": 3.05, "unit": "µg/mL"}]}
{"smiles": "CCN1CCc2c(C)c(NS(C)(=O)=O)c(C)c(NC(=O)C(C)(C)C)c21", "note": "[Example 16, N-(1-ethyl-5-methanesulfonylamino-4,6-dimethylindolin-7-yl)-2,2-dimethylpropanamide]", "values": [{"measurement": "Maximum concentration in blood", "setting": "[1]", "value": 2.90, "unit": "µg/mL"}]}
{"smiles": "CC(C)(Sc1cc(C(C)(C)C)c(O)c(C(C)(C)C)c1)Sc1cc(C(C)(C)C)c(O)c(C(C)(C)C)c1", "note": "[Probucol]", "values": [{"measurement": "LDL peroxidation inhibitory ratio (%)", "setting": "LDL", "value": 33.8, "unit": "%"}]}
{"smiles": "CCCN1c2c(c(C)c(NS(N)(=O)=O)c(C)c2NC(=O)C(C)(C)C)CC1C.Cl", "note": "(stereo not shown) [Example 53, N-(2,4,6-trimethyl-1-propyl-5-sulfamoylaminoindolin-7-yl)-2,2-dimethylpropanamide hydrochloride]", "values": [{"measurement": "Maximum concentration in blood", "setting": "[1]", "value": 1.31, "unit": "µg/mL"}, {"measurement": "inhibition at 1 µM", "setting": "[2]", "value": 70, "unit": "%"}]}
{"smiles": "CCCCCCN1CCc2c(C)c(NS(C)(=O)=O)c(C)c(NC(=O)C(C)(C)C)c21", "note": "[Example 22, N-(1-hexyl-5-methanesulfonylamino-4,6-dimethylindolin-7-yl)-2,2-dimethylpropanamide]", "values": [{"measurement": "Maximum concentration in blood", "setting": "[1]", "value": 1.12, "unit": "µg/mL"}]}
{"smiles": "CCCN1CCc2c(C)c(NS(N)(=O)=O)c(C)c(NC(=O)C(C)(C)C)c21.Cl", "note": "[Example 17, N-(4,6-dimethyl-1-propyl-5-sulfamoylaminoindolin-7-yl)-2,2-dimethylpropanamide hydrochloride]", "values": [{"measurement": "Hepatic ACAT inhibitory ratio (%)", "setting": "hepatic ACAT", "value": 86.4, "unit": "%"}, {"measurement": "inhibition in vivo at 10 mg/kg", "setting": "[3]", "value": 44.4, "unit": "%"}]}
{"smiles": "CCCCCN1CCc2c(C)c(NS(C)(=O)=O)c(C)c(NC(=O)C(C)(C)C)c21", "note": "[Example 11, N-(5-methanesulfonylamino-4,6-dimethyl-1-pentylindolin-7-yl)-2,2-dimethylpropanamide]", "values": [{"measurement": "Maximum concentration in blood", "setting": "[1]", "value": 1.98, "unit": "µg/mL"}]}
{"smiles": "CCCN1CCc2c(C)c(NS(C)(=O)=O)c(C)c(NC(=O)C(C)(C)C)c21", "note": "[Example 14, N-(5-methanesulfonylamino-4,6-dimethyl-1-propylindolin-7-yl)-2,2-dimethylpropanamide]", "values": [{"measurement": "Maximum concentration in blood", "setting": "[1]", "value": 2.30, "unit": "µg/mL"}]}
{"smiles": "Cc1c2c(c(NC(=O)C(C)(C)C)c(C)c1NS(C)(=O)=O)N(CC(C)C)CC2", "note": "[Example 15, N-[5-methanesulfonylamino-4,6-dimethyl-1-(2-methylpropyl)indolin-7-yl]-2,2-dimethylpropanamide]", "values": [{"measurement": "Maximum concentration in blood", "setting": "[1]", "value": 1.68, "unit": "µg/mL"}]}
{"smiles": "Cc1c2c(c(NC(=O)C(C)(C)C)c(C)c1NS(C)(=O)=O)N(C1CCCC1)CC2", "note": "[Example 41, N-(1-cyclopentyl-5-methanesulfonylamino-4,6-dimethylindolin-7-yl)-2,2-dimethylpropanamide]", "values": [{"measurement": "Hepatic ACAT inhibitory ratio (%)", "setting": "hepatic ACAT", "value": 97.3, "unit": "%"}, {"measurement": "Maximum concentration in blood", "setting": "[1]", "value": 2.03, "unit": "µg/mL"}, {"measurement": "inhibition in vivo at 10 mg/kg", "setting": "[3]", "value": 58.5, "unit": "%"}, {"measurement": "inhibition at 1 µM", "setting": "[2]", "value": 76.5, "unit": "%"}]}
{"smiles": "CCCCCN1CCc2c(C)c(NS(N)(=O)=O)c(C)c(NC(=O)C(C)(C)C)c21.Cl", "note": "[Example 18, N-(4,6-dimethyl-1-pentyl-5-sulfamoylaminoindolin-7-yl)-2,2-dimethylpropanamide hydrochloride]", "values": [{"measurement": "Hepatic ACAT inhibitory ratio (%)", "setting": "hepatic ACAT", "value": 96.7, "unit": "%"}, {"measurement": "inhibition in vivo at 10 mg/kg", "setting": "[3]", "value": 41.4, "unit": "%"}, {"measurement": "inhibition at 1 µM", "setting": "[2]", "value": 93, "unit": "%"}]}
{"smiles": "Cc1c2c(c(NC(=O)C(C)(C)C)c(C)c1NS(C)(=O)=O)N(CCC(C)C)CC2", "note": "[Example 13, N-[5-methanesulfonylamino-4,6-dimethyl-1-(3-methylbutyl)indolin-7-yl]-2,2-dimethylpropanamide]", "values": [{"measurement": "Maximum concentration in blood", "setting": "[1]", "value": 1.36, "unit": "µg/mL"}]}
